# Laboratory results reported in US3947411A, “Novel 1-aryl-2-arylalkyl-3-or-4-[4'-(substituted-alkyl)piperazino-1']butanols- 2-or-butenes-1, and methods of manufacture thereof” (Warner-Lambert Company, priority 1972, dated 1976).
# Assays:
# [1] = Solubility in water; assay type: physicochemical; conditions: hydrochlorides or oxalates, read-out: solubilities (in water)
# Protocol: The following list contains examples of those compounds which are made according to the methods disclosed. (The individual compounds are identified by elementary analyses and infrared spectra, by ultra-violet or nuclear resonance spectra, if necessary.) Individual melting points and solubilities (in water) are also given as is the method by which each compound is prepared.
# The melting points and solubilities are given for the Hydrochlorides I - XVI; XVIII - XXVII; XXIX - XXXV; XXXVII - XLII; XLIV - LXII; LXIV - LXVII, and the Oxalates XVII; […]; XXXVI; LXIII.
# [2] = test system: Staphylococcus aureus; test: Agar well inhibition zone test against bacteria, Staphylococcus aureus (Table III); conditions: quantity per well giving inhibition zone (500, 50, 5 μg tested); nutrient agar, 37°, 24 hours
# [3] = test system: A. niger; test: Minimum inhibitory concentration for fungi, tube dilution, A. niger (Table IV); conditions: Aspergillus niger, 48 h, read-out: Minimum Inhibitory Concentration, A. niger
# [4] = test system: Escherichia coli; test: Agar well inhibition zone test against bacteria, Escherichia coli (Table III); conditions: quantity per well giving inhibition zone (500, 50, 5 μg tested); nutrient agar, 37°, 24 hours
# [5] = test system: C. albicans; test: Minimum inhibitory concentration for fungi, tube dilution, C. albicans (Table IV); conditions: Candida albicans, 48 h, read-out: Minimum Inhibitory Concentration, C. albicans
# [6] = test system: Aspergillus niger; test: Agar well inhibition zone test against fungi, Aspergillus niger (Table II); conditions: quantity per well giving inhibition zone (500, 50, 5 μg tested); Sabouraud agar, 28°, 48 hours
# [7] = test system: C. albicans; test: Minimum inhibitory concentration for fungi in presence of serum, C. albicans (Table VI); assay type: cell-based; conditions: Candida albicans; Sabouraud nutrient broth + 10% bovine serum, 28°C, 48 hours
# [8] = test system: Candida albicans; test: Agar well inhibition zone test against fungi, Candida albicans (Table II); conditions: quantity per well giving inhibition zone (500, 50, 5 μg tested); Sabouraud agar, 28°, 48 hours
# [9] = test system: Staph. aureus; test: Minimum inhibitory concentration for bacteria, tube dilution, Staph. aureus (Table V); conditions: Staphylococcus aureus, 48 h, read-out: Minimum Inhibitory Concentration, Staph. aureus
Structure (SMILES),solubility [1] [mg/mL],MIC [3] [µg/mL],MIC [5] [µg/mL],MIC [7] [µg/mL],MIC [9] [µg/mL],"Inhibition Area at μg, Staph. aureus [2] [µg]","Inhibition Area at μg, E. coli [4] [µg]","Inhibition Area at μg, Asp. niger [6] [µg]","Inhibition Area at μg, Cand. albicans [8] [µg]"
"CC(N1CCN(C)CC1)C(O)(Cc1ccccc1)Cc1ccccc1 (stereo not shown) [LI, 1-phenyl-2-benzyl-3-[1'-methyl-piperazino-4'-]-butanol-2]",200,256,256,–,–,500,500,50,50
"CC(C(=Cc1ccccc1)Cc1ccccc1)N1CCN(CCCl)CC1 (stereo not drawn) [XLIV, 1-phenyl-2-benzyl-3-(4'-β-chloro-ethyl-piperazino-1')-butene-1]",10,> 1020,> 1020,–,–,500,500,50,50
"CC(N1CCN(CCN(C)c2ccccc2)CC1)C(O)(Cc1ccccc1)Cc1ccccc1 (stereo not drawn) [XVIII, 1-phenyl-2-benzyl-3-[4'-(β-N-phenyl-N-methyl-aminoethyl)-piperazino-1']-butanol-2]",10,–,–,–,–,> 500,> 500,> 500,> 500
"CN1CCN(CC(O)(Cc2ccccc2)Cc2ccccc2)CC1 [LV, 1-phenyl-2-benzyl-3-(4'-methyl-piperazino-1')-propanol-2]",< 10,–,–,–,–,> 500,> 500,> 500,> 500
"CCN(CCN1CCN(C(C)C(O)(Cc2ccccc2)Cc2ccccc2)CC1)Cc1ccccc1 (stereo not drawn) [XVII, 1-phenyl-2-benzyl-3-[4'-(β-N-ethyl-N-benzyl-aminoethyl)-piperazino-1']-butanol-2]",100,–,–,–,–,> 500,> 500,500,500
"Cc1cccc(CN2CCN(C(C)C(O)(Cc3ccccc3)Cc3ccccc3)CC2)c1 (stereo not shown) [LIV, 1-phenyl-2-benzyl-3-(4'-m-methyl-benzyl-piperazino-1')-butanol-2]",10,–,–,–,–,> 500,> 500,> 500,> 500
"CC(N1CCN(CCN2CCN(c3ccccc3)CC2)CC1)C(O)(Cc1ccccc1)Cc1ccccc1 (stereo not drawn) [XI, 1-phenyl-2-benzyl-3-{4'-[β-(4""-phenyl-piperazino-1"")-ethyl]-piperazino-1'}-butanol-2]",50,–,> 1020,–,> 1020,50,> 500,500,50
"CN1CCN(CCC(O)(Cc2ccccc2)Cc2ccccc2)CC1 [LVI, 1-phenyl-2-benzyl-4-(4'-methyl-piperazino-1')-butanol-2]",10,–,–,–,–,500,500,500,500
"CC1CCCN(CCN2CCN(C(C)C(=Cc3ccccc3)Cc3ccccc3)CC2)C1 (stereo not drawn) [XXXIV, 1-phenyl-2-benzyl-3-{4'-[β-(3""-methylpiperidino)-ethyl]-piperazino-1'}-butene-1]",25,32,16,–,128,50,500,50,50

# Continued, in another order:
solubility [1] [mg/mL],MIC [3] [µg/mL],MIC [5] [µg/mL],MIC [7] [µg/mL],MIC [9] [µg/mL],Structure (SMILES),"Inhibition Area at μg, Staph. aureus [2] [µg]","Inhibition Area at μg, E. coli [4] [µg]","Inhibition Area at μg, Asp. niger [6] [µg]","Inhibition Area at μg, Cand. albicans [8] [µg]"
100,128,64,64,–,"CC(N1CCN(CCN(C)C)CC1)C(O)(Cc1ccccc1)Cc1ccccc1 (stereo not drawn) [Compound I, 1-phenyl-2-benzyl-3-[4'-(β-dimethylamino-ethyl)-piperazino-1']-butanol-2]",500,500,50,50
50,–,–,–,–,"CC(N1CCN(CCN(Cc2ccccc2)Cc2ccccc2)CC1)C(O)(Cc1ccccc1)Cc1ccccc1 (stereo not drawn) [XVI, 1-phenyl-2-benzyl-3-[4'-(β-dibenzylamino-ethyl)-piperazino-1']-butanol-2]",> 500,> 500,> 500,> 500
100,64,–,–,128,"CC(C(=Cc1ccccc1)Cc1ccccc1)N1CCN(CCN2CCOCC2)CC1 (stereo not drawn) [XXXI, 1-phenyl-2-benzyl-3-[4'-(β-morpholino-ethyl)-piperazino-1']-butene-1]",50,> 500,50,500
100,–,–,–,–,"CC(N1CCN(CCO)CC1)C(O)(Cc1ccccc1)Cc1ccccc1 (stereo not drawn) [XLVI, 1-phenyl-2-benzyl-3-[4'-(β-hydroxyethyl)-piperazino-1']-butanol-2]",500,> 500,500,500
< 10,–,–,–,–,"OC(CCN1CCN(c2ccccc2)CC1)(Cc1ccccc1)Cc1ccccc1 [LVII, 1-phenyl-2-benzyl-4-(4'-phenyl-piperazino-1')-butanol-2]",> 500,500,> 500,> 500
100,–,–,–,–,"CN1CCN(CCCCCCN2CCN(CCC(O)(Cc3ccccc3)Cc3ccccc3)CC2)CC1 [LXI, 1-phenyl-2-benzyl-4-{4'-[w-(4""-methyl-piperazino-1"")-n-hexyl]-piperazino-1'}-butanol-2]",> 500,> 500,> 500,> 500
< 10,–,–,–,–,"CC(N1CCN(c2ccccc2)CC1)C(O)(Cc1ccccc1)Cc1ccccc1 (stereo not shown) [LII, 1-phenyl-2-benzyl-3-(4'-phenyl-piperazino-1')-butanol-2]",> 500,> 500,> 500,> 500
10,–,–,–,–,"CC(N1CCN(Cc2ccccc2)CC1)C(O)(Cc1ccccc1)Cc1ccccc1 (stereo not shown) [LIII, 1-phenyl-2-benzyl-3-(4'-benzyl-piperazino-1')-butanol-2]",> 500,> 500,> 500,> 500
50,512,1020,–,–,"CCN(CC)CCN1CCN(C(C)C(O)(Cc2ccccc2)Cc2ccccc2)CC1 (stereo not drawn) [II, 1-phenyl-2-benzyl-3-[4'-(β-diethylaminoethyl)-piperazino-1']-butanol-2]",500,500,50,50
